Experimental findings from patent publication US20250275959A1, “COMPOUNDS AND METHODS OF THEIR USE” (LEXICON PHARMACEUTICALS, INC., priority 2024, published 2025) are described below.

In general, IC50 refers to the concentration that inhibits the measured activity by half.

Test [1] deals with T1, hACSL5 (Homo sapiens (Human), UniProt Q9ULC5). The test is described as follows: Human ACSL5 coupled enzyme Amplex Red assay. The format is biochemical. The following applies: read-out: hACSL5 IC50. Here is the method:
Human ACSL5 (33-683) was cloned with a C-terminal 6 His tag and expressed in insect cells (sf9) as per standard insect cell expression protocols. Human ACSL5 was enriched by affinity nickel affinity chromatography followed by Superdex S200 gel filtration column equilibrated in 20 mM HEPES pH 7.8, 500 mM NaCl, 1 mM TCEP, 5% glycerol, 0.1% Triton X^100.
Inhibition of ACSL5 enzyme activity was monitored with a coupled enzyme Amplex Red assay.
The assay is carried out in 384-well microtiterplates. In a total volume of […], compounds are preincubated with 20 nM ACSL5, in a buffer containing 150 mM MOPS-NaOH, 12 mM MgCl2, 0.03% (v/v) Triton X-100, 2.79 U mL-1 Peroxidase and 24 U mL-1 Acyl-CoA Oxidase (pH 7.6). The reaction is started by the addition of substrate and co factors (25 μM oleate, 30 μM CoA, 1 mM ATP and 50 μM Amplex Red) and the fluorescence detected after 10 minutes at 25° C. with a fluorescence reader (BMG-Fluostar; BMG-Technologies) using an excitation wavelength of 535 nm and an emission wavelength of 590 nm.
(§1) Concentration-response titration points for each compound tested were filled to the Hill equation yielding concentrations of half maximal inhibition […] and maximal inhibition values.
Target sequence in this assay (Q9ULC5 33-683): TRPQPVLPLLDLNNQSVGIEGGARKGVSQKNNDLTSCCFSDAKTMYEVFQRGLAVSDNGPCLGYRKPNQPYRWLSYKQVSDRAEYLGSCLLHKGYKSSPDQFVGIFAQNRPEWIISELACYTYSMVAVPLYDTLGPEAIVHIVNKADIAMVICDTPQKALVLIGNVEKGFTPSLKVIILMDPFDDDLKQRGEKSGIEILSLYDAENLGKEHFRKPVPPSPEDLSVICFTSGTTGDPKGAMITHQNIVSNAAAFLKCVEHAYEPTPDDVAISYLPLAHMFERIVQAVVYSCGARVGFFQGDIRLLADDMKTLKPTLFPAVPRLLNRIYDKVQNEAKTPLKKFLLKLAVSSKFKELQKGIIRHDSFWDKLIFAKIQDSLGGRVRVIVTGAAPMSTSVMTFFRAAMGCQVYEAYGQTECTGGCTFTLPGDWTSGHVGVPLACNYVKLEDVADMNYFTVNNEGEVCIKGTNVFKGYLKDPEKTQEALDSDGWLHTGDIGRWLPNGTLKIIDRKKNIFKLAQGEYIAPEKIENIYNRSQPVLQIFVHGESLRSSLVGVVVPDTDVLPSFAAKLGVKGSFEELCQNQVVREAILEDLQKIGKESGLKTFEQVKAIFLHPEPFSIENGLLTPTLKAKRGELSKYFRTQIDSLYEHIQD

Test [2] addresses T1, hACSL5. The test is described as follows: Cell-based assay (CBA) with B12FA in hACSL5-transfected Expi293F / FlpIn TRex293 cells. Particulars: hACSL5-expressing cells.
Text: To assess the cell penetration and cellular activity of the compounds, a cell-based assay (CBA) was used to detect compound potency in living cells. The assay utilized the fluorescent fatty acid analogue B12FA, a boron-dipyrromethene (BODIPY™) labelled C12 fatty acid that can be incorporated into glycerophosphocholine in the cytoplasmic oil droplets of live cells. A concentration-dependent, red-shifted fluorescence can be induced by the formation of BODIPY™ excimers in the oil droplets.
Expi293F cells transfected with full length hACSL5 plasmid were selected using 1 mg/mL G418 culture medium and clones were selected by in vitro whole cell lysate (WCL) assay. The cell passage number used in the Expi293 CBA assay could not be used beyond 10 passages due to a decrease in hACSL5 expression. Therefore, a CBA using FlpIn TRex293 cells for inducible expression of hACSL5 was also established.
FlpIn TRex293 cells transfected with hACSL5 plasmid were selected in culture medium containing 15 µg/ml Blasticidin and 150 µg/ml Hygromycin. For cell-based assays, stable transfected hACSL5 cells were seeded onto a 96-well plate at 30-50k/well and incubated overnight. For the inducible system, […] tetracycline (or doxycycline) was added to culture medium of FlpIn TRex293 hACSL5 cells on the day before the assay to induce expression of hACSL5. The next day, growth media was replaced with culture medium without FBS and glucose (DMEM glucose (-), ThermoFisher) and cells were incubated for an hour before treating cells with serial diluted compounds containing 20 µM B12FA (ThermoFisher) for another 3 hours in the above medium. Cells were then fixed in 4% formaldehyde for 10 minutes and washed twice with PBS. The plate was read using the Cytation 5 imaging system with an excitation wavelength of 485 nm and observed emissions at 630 nm and 520 nm. The percentage of inhibition was calculated as: […]
wherein A is the ratio of emission intensities at 630 nm/520 nm in the absence of inhibitor (maximum ratio); B is the ratio of the intensities at those wavelengths in the presence of […] of the test compound or non-induced cells (minimum ratio); and X is the ratio of the intensities at a given compound concentration.
as §1
Target sequence in this assay (Q9ULC5 whole entry): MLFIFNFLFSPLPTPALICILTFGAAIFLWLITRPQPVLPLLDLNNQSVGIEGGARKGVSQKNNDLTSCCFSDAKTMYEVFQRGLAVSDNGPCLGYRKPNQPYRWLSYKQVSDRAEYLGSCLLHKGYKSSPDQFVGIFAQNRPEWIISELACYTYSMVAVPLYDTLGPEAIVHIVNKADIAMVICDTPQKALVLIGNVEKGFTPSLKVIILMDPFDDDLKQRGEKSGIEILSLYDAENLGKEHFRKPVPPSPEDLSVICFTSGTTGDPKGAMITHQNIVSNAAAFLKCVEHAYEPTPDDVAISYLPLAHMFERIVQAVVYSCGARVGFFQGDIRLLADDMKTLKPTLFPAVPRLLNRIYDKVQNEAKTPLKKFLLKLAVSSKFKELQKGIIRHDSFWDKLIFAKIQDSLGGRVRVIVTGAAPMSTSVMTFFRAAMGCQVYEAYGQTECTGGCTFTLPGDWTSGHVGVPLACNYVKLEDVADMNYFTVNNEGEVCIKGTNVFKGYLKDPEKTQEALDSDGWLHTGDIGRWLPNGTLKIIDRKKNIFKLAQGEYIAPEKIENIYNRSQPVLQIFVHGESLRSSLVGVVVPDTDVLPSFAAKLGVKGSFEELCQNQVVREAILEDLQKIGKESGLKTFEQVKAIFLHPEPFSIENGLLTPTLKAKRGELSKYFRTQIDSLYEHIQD

For `CC[C@@H](Oc1ccc(C(=O)NS(=O)(=O)N2CCC(OC3CCN(C)CC3)CC2)c(F)c1F)c1ccc(OC2CC(OC)C2)cn1` (stereo partly drawn) [2,3-difluoro-4-((R)-1-(5-((1R,3R)-3-methoxycyclobutoxy)pyridin-2-yl)propoxy)-N-((4-((1-methylpiperidin-4-yl)oxy)piperidin-1-yl)sulfonyl)benzamide], the results for the IC50 in test [1] and in test [2] were under 100 nM and 100 to 500 nM, respectively.

Regarding `CC[C@@H](Oc1ccc(C(=O)NS(=O)(=O)N2CCN(C)CC2)c(F)c1F)c1ccc(OC2CC(OC)C2)cn1` (stereo partly drawn) [2,3-difluoro-4-((R)-1-(5-((1R,3R)-3-methoxycyclobutoxy)pyridin-2-yl)propoxy)-N-((4-methylpiperazin-1-yl)sulfonyl)benzamide], the IC50 in test [1] and in test [2] was 100 to 500 nM each time.

With `CC[C@@H](Oc1ccc(C(=O)NS(=O)(=O)c2ccc(OC3CCCN(C)C3)cc2)c(F)c1F)c1ccc(Oc2ccccn2)cn1` (stereo partly drawn) [2,3-difluoro-N-((4-((1-methylpiperidin-3-yl)oxy)phenyl)sulfonyl)-4-((R)-1-(5-(pyridin-2-yloxy)pyridin-2-yl)propoxy)benzamide], the IC50 in test [1] and in test [2] was under 100 nM in each case.

On to `CC(Oc1ccc(C(=O)NS(=O)(=O)c2cnn(CCN(C)C)c2)c(F)c1F)c1cccc(OCC2CC2)c1` (stereo not drawn) [4-(1-(3-(cyclopropylmethoxy)phenyl)ethoxy)-N-((1-(2-(dimethylamino)ethyl)-1H-pyrazol-4-yl)sulfonyl)-2,3-difluorobenzamide], for which the IC50 was 100 to 500 nM in test [1] and over 500 nM in test [2].

As for `CC[C@@H](Oc1ccc(C(=O)NS(=O)(=O)N2CCN(C)CC2)c(F)c1F)c1ccc(OC2CC(OC(F)F)C2)cn1` (stereo partly drawn) [4-((R)-1-(5-((1R,3R)-3-(difluoromethoxy)cyclobutoxy)pyridin-2-yl)propoxy)-2,3-difluoro-N-((4-methylpiperazin-1-yl)sulfonyl)benzamide], the IC50 in test [1] and in test [2] was 100 to 500 nM throughout.

As to `CC[C@@H](Oc1ccc(C(=O)NS(=O)(=O)N2CCC(OC3CCN(C)CC3)CC2)cc1C(F)(F)F)c1ccc(OC2CC(OC)C2)cn1` (stereo partly drawn) [4-((R)-1-(5-((1R,3R)-3-methoxycyclobutoxy)pyridin-2-yl)propoxy)-N-((4-((1-methylpiperidin-4-yl)oxy)piperidin-1-yl)sulfonyl)-3-(trifluoromethyl)benzamide], the IC50 was under 100 nM in test [1] and 100 to 500 nM in test [2].

For `CC[C@@H](Oc1ccc(C(=O)NS(=O)(=O)N2CCN(C)CC2)cc1C(F)(F)F)c1ccc(OC2CC(OC)C2)cn1` (stereo partly drawn) [4-((R)-1-(5-((1R,3R)-3-methoxycyclobutoxy)pyridin-2-yl)propoxy)-N-((4-methylpiperazin-1-yl)sulfonyl)-3-(trifluoromethyl)benzamide], the IC50 in test [1] and in test [2] was 100 to 500 nM each time.

For the molecule `CC[C@@H](Oc1ccc(C(=O)NS(=O)(=O)c2ccc(OCC[C@H]3CCCCN3C)cc2)c(F)c1F)c1ccc(OCC2CC2)cn1` [4-((R)-1-(5-(cyclopropylmethoxy)pyridin-2-yl)propoxy)-2,3-difluoro-N-((4-(2-((R)-1-methylpiperidin-2-yl)ethoxy)phenyl)sulfonyl)benzamide], the IC50 was under 100 nM in test [1] and 100 to 500 nM in test [2].

Take `CC[C@@H](Oc1ccc(C(=O)NS(=O)(=O)c2ccc(OCCN3CC[C@H](F)C3)cc2)c(F)c1F)c1ccc(OCC2CC2)cn1` [4-((R)-1-(5-(cyclopropylmethoxy)pyridin-2-yl)propoxy)-2,3-difluoro-N-((4-(2-((S)-3-fluoropyrrolidin-1-yl)ethoxy)phenyl)sulfonyl)benzamide]: the IC50 in test [1] was under 100 nM; in test [2], 100 to 500 nM.

On to `CC(Oc1ccc(C(=O)NS(=O)(=O)c2ccc(CN)cc2)c(F)c1F)c1cccc(OC2CCCC2)c1` (stereo not drawn) [N-((4-(aminomethyl)phenyl)sulfonyl)-4-(1-(3-(cyclopentyloxy)phenyl)ethoxy)-2,3-difluorobenzamide], for which the IC50 in test [1] was 100 to 500 nM.

Consider `CC(Oc1ccc(C(=O)NS(=O)(=O)c2ccc(CN)cc2)cc1C(F)(F)F)c1cccc(OC2CCCC2)c1` (stereo not drawn) [N-((4-(aminomethyl)phenyl)sulfonyl)-4-(1-(3-(cyclopentyloxy)phenyl)ethoxy)-3-(trifluoromethyl)benzamide], for which the IC50 in test [1] was over 500 nM.

Take `CCCCCOc1cccc(C(C)Oc2ccc(C(=O)NS(=O)(=O)c3ccc(CN)cc3)cc2C(F)(F)F)c1` (stereo not drawn) [N-((4-(aminomethyl)phenyl)sulfonyl)-4-(1-(3-(pentyloxy)phenyl)ethoxy)-3-(trifluoromethyl)benzamide]: in test [1], the IC50 fell in the range of 100 to 500 nM.

With `CC(Oc1ccc(C(=O)NS(=O)(=O)c2ccc(CN)cc2)cc1C(F)(F)F)c1cccc(Oc2cnccn2)c1` (stereo not drawn) [N-((4-(aminomethyl)phenyl)sulfonyl)-4-(1-(3-(pyrazin-2-yloxy)phenyl)ethoxy)-3-(trifluoromethyl)benzamide], in test [1], the IC50 was under 100 nM.

For `CC(Oc1ccc(C(=O)NS(=O)(=O)c2ccc(CN)cc2)cc1C(F)(F)F)c1cccc(Oc2ccccn2)c1` (stereo not drawn) [N-((4-(aminomethyl)phenyl)sulfonyl)-4-(1-(3-(pyridin-2-yloxy)phenyl)ethoxy)-3-(trifluoromethyl)benzamide], in test [1], the half-maximal inhibitory concentration (IC50) was under 100 nM.

For `CC(Oc1ccc(C(=O)NS(=O)(=O)c2ccc(CN)cc2)cc1C(F)(F)F)c1cccc(Oc2cccnc2)c1` (stereo not drawn) [N-((4-(aminomethyl)phenyl)sulfonyl)-4-(1-(3-(pyridin-3-yloxy)phenyl)ethoxy)-3-(trifluoromethyl)benzamide], the IC50 in test [1] is under 100 nM.

For the molecule `CC(Oc1ccc(C(=O)NS(=O)(=O)c2ccc(CN)cc2)cc1C(F)(F)F)c1cccc(Oc2cncnc2)c1` (stereo not drawn) [N-((4-(aminomethyl)phenyl)sulfonyl)-4-(1-(3-(pyrimidin-5-yloxy)phenyl)ethoxy)-3-(trifluoromethyl)benzamide], the IC50 in test [1] was 100 to 500 nM.

On to `CC(Oc1ccc(C(=O)NS(=O)(=O)c2ccc(CN)cc2)cc1C(F)(F)F)c1cccc(Oc2ccsc2)c1` (stereo not drawn) [N-((4-(aminomethyl)phenyl)sulfonyl)-4-(1-(3-(thiophen-3-yloxy)phenyl)ethoxy)-3-(trifluoromethyl)benzamide], for which the IC50 in test [1] is under 100 nM.

Take `CC(COc1ccc(C(=O)NS(=O)(=O)c2ccc(CN)cc2)cc1C(F)(F)F)c1cccc(Oc2ccccc2)c1` (stereo not drawn) [N-((4-(aminomethyl)phenyl)sulfonyl)-4-(2-(3-phenoxyphenyl)propoxy)-3-(trifluoromethyl)benzamide]: in test [1], the IC50 is 100 to 500 nM.

As for `NCc1ccc(S(=O)(=O)NC(=O)c2ccc(OCC3CCCC3)c(C(F)(F)F)c2)cc1` [N-((4-(aminomethyl)phenyl)sulfonyl)-4-(cyclopentylmethoxy)-3-(trifluoromethyl)benzamide], the IC50 in test [1] is over 500 nM.

Consider `CC[C@@H](Oc1ccc(C(=O)NS(=O)(=O)N2CCN(CC)CC2)c(F)c1F)c1ccc(OC2CC(OC)C2)cn1` (stereo partly drawn) [N-((4-ethylpiperazin-1-yl)sulfonyl)-2,3-difluoro-4-((R)-1-(5-((1R,3R)-3-methoxycyclobutoxy)pyridin-2-yl)propoxy)benzamide], for which the IC50 in test [1] fell in the range of 100 to 500 nM.

In the case of `CC[C@@H](Oc1ccc(C(=O)NS(=O)(=O)N2CCN(CC)CC2)cc1C(F)(F)F)c1ccc(OC2CC(OC)C2)cn1` (stereo partly drawn) [N-((4-ethylpiperazin-1-yl)sulfonyl)-4-((R)-1-(5-((1R,3R)-3-methoxycyclobutoxy)pyridin-2-yl)propoxy)-3-(trifluoromethyl)benzamide], the IC50 in test [1] was 100 to 500 nM.
